Values after ≈ are worked out from the molar mass of the structure shown.
Key:
Format in all cases: functional
[1] = test system: Pseudomonas aeruginosa; assay: Antibacterial activity against Pseudomonas aeruginosa CMCC 10104 after 24 hrs by agar dilution method; conditions: CMCC 10104, 24 h
[2] = test system: Escherichia coli; assay: Antibacterial activity against Escherichia coli CMCC 44103 after 24 hrs by agar dilution method; conditions: CMCC 44103, 24 h
[3] = test system: Staphylococcus aureus; assay: Antibacterial activity against Staphylococcus aureus CMCC 26003 after 24 hrs by agar dilution method; conditions: CMCC 26003, 24 h

**Q.** Which results are given for `C[C@H]1COc2c(NC(=O)[C@H]3CC[C@H](COc4cccc(F)c4F)CC3)c(F)cc3c(=O)c(C(=O)O)cn1c23`?
**A.** MIC [1]: > 32 µg/mL; MIC [2]: > 32 µg/mL; MIC [3]: 32 µg/mL (≈ 60.3 µM)

**Q.** `COc1c(NC(=O)[C@H]2CC[C@@H](COc3cccc(F)c3F)CC2)c(F)cc2c(=O)c(C(=O)O)cn(C3CC3)c12` was tested. Which MIC [1] did it give?
**A.** > 32 µg/mL

**Q.** What about the MIC [2] of the same compound?
**A.** > 32 µg/mL

**Q.** What about the MIC [3] of the same compound?
**A.** > 32 µg/mL

**Q.** `COc1c(NC(=O)[C@H]2CC[C@@H](COc3ccc([N+](=O)[O-])cc3)CC2)c(F)cc2c(=O)c(C(=O)O)cn(C3CC3)c12` was tested. Which MIC [1] did it give?
**A.** 2 µg/mL (≈ 3.61 µM)

**Q.** What about the MIC [2] of the same compound?
**A.** 0.25 µg/mL (≈ 0.452 µM)

**Q.** And the MIC [3]?
**A.** 1 µg/mL (≈ 1.81 µM)

**Q.** `Cc1cccc(C)c1OC[C@H]1CC[C@H](C(=O)Nc2c(F)cc3c(=O)c(C(=O)O)cn4c3c2OC[C@@H]4C)CC1` was tested. Which MIC [1] did it give?
**A.** > 32 µg/mL

**Q.** And the MIC [2]?
**A.** > 32 µg/mL

**Q.** What about the MIC [3] of the same compound?
**A.** > 32 µg/mL

**Q.** How did the MIC [1] turn out when `COc1c(NC(=O)[C@H]2CC[C@H](COc3ccc([N+](=O)[O-])cc3)CC2)c(F)cc2c(=O)c(C(=O)O)cn(C3CC3)c12` was run?
**A.** > 32 µg/mL

**Q.** What about the MIC [2] of the same compound?
**A.** > 32 µg/mL

**Q.** And the MIC [3]?
**A.** > 32 µg/mL

**Q.** Which results are given for `COc1c(NC(=O)[C@H]2CC[C@@H](COc3ccccc3)CC2)c(F)cc2c(=O)c(C(=O)O)cn(C3CC3)c12`?
**A.** MIC [1]: > 32 µg/mL; MIC [2]: > 32 µg/mL; MIC [3]: 4 µg/mL (≈ 7.87 µM)

**Q.** How did the MIC [1] turn out when `C[C@H]1COc2c(NC(=O)[C@H]3CC[C@@H](COc4cccc(F)c4F)CC3)c(F)cc3c(=O)c(C(=O)O)cn1c23` was run?
**A.** 1 µg/mL (≈ 1.89 µM)

**Q.** And the MIC [2]?
**A.** > 32 µg/mL

**Q.** What about the MIC [3] of the same compound?
**A.** 2 µg/mL (≈ 3.77 µM)

**Q.** Which results are given for `CCn1cc(C(=O)O)c(=O)c2cc(F)c(NC(=O)[C@H]3CC[C@H](COc4ccccc4)CC3)c(F)c21`?
**A.** MIC [1]: > 32 µg/mL; MIC [2]: > 32 µg/mL; MIC [3]: > 32 µg/mL

**Q.** Which MIC [1] does the source give for `COc1c(NC(=O)[C@H]2CC[C@H](COc3c(C)cccc3C)CC2)c(F)cc2c(=O)c(C(=O)O)cn(C3CC3)c12` here?
**A.** > 32 µg/mL

**Q.** And the MIC [2]?
**A.** > 32 µg/mL

**Q.** What about the MIC [3] of the same compound?
**A.** > 32 µg/mL

**Q.** Which results are given for `COc1c(NC(=O)[C@H]2CC[C@@H](COc3c(C)cccc3C)CC2)c(F)cc2c(=O)c(C(=O)O)cn(C3CC3)c12`?
**A.** MIC [1]: > 32 µg/mL; MIC [2]: > 32 µg/mL; MIC [3]: > 32 µg/mL

**Q.** Which MIC [1] does the source give for `CCn1cc(C(=O)O)c(=O)c2cc(F)c(N3CCNC(C)C3)c(F)c21` (stereo not given) [LOMEFLOXACIN] here?
**A.** 8 µg/mL (≈ 22.8 µM)

**Q.** What about the MIC [2] of the same compound?
**A.** 2 µg/mL (≈ 5.69 µM)

**Q.** And the MIC [3]?
**A.** 4 µg/mL (≈ 11.4 µM)

**Q.** With `CCn1cc(C(=O)O)c(=O)c2cc(F)c(NC(=O)[C@H]3CC[C@@H](COc4ccc([N+](=O)[O-])cc4)CC3)c(F)c21` as the compound, how does the MIC [1] read?
**A.** > 32 µg/mL

**Q.** What about the MIC [2] of the same compound?
**A.** > 32 µg/mL

**Q.** And the MIC [3]?
**A.** 4 µg/mL (≈ 7.55 µM)

**Q.** What does the source list for `CCn1cc(C(=O)O)c(=O)c2cc(F)c(NC(=O)[C@H]3CC[C@@H](COc4ccccc4)CC3)c(F)c21`?
**A.** MIC [1]: > 32 µg/mL; MIC [2]: > 32 µg/mL; MIC [3]: > 32 µg/mL

**Q.** `COc1c(NC(=O)[C@H]2CC[C@H](COc3cccc(F)c3F)CC2)c(F)cc2c(=O)c(C(=O)O)cn(C3CC3)c12` was tested. Which MIC [1] did it give?
**A.** > 32 µg/mL

**Q.** And the MIC [2]?
**A.** > 32 µg/mL

**Q.** And the MIC [3]?
**A.** > 32 µg/mL

**Q.** For `C[C@H]1COc2c(NC(=O)[C@H]3CC[C@H](COc4ccccc4)CC3)c(F)cc3c(=O)c(C(=O)O)cn1c23`, which MIC [1] is on record?
**A.** > 32 µg/mL

**Q.** What about the MIC [2] of the same compound?
**A.** 16 µg/mL (≈ 32.4 µM)

**Q.** And the MIC [3]?
**A.** > 32 µg/mL

**Q.** What does the source list for `C[C@H]1COc2c(NC(=O)[C@H]3CC[C@@H](COc4ccccc4)CC3)c(F)cc3c(=O)c(C(=O)O)cn1c23`?
**A.** MIC [1]: > 32 µg/mL; MIC [2]: 8 µg/mL (≈ 16.2 µM); MIC [3]: > 32 µg/mL

**Q.** For `Cc1cccc(C)c1OC[C@H]1CC[C@@H](C(=O)Nc2c(F)cc3c(=O)c(C(=O)O)cn4c3c2OC[C@@H]4C)CC1`, which MIC [1] is on record?
**A.** > 32 µg/mL

**Q.** What about the MIC [2] of the same compound?
**A.** > 32 µg/mL

**Q.** What about the MIC [3] of the same compound?
**A.** > 32 µg/mL

**Q.** `CCn1cc(C(=O)O)c(=O)c2cc(F)c(NC(=O)[C@H]3CC[C@@H](COc4cccc(F)c4F)CC3)c(F)c21` was tested. Which MIC [1] did it give?
**A.** > 32 µg/mL

**Q.** And the MIC [2]?
**A.** > 32 µg/mL

**Q.** And the MIC [3]?
**A.** > 32 µg/mL

**Q.** With `CCn1cc(C(=O)O)c(=O)c2cc(F)c(NC(=O)[C@H]3CC[C@H](COc4cccc(F)c4F)CC3)c(F)c21` as the compound, how does the MIC [1] read?
**A.** > 32 µg/mL

**Q.** What about the MIC [2] of the same compound?
**A.** > 32 µg/mL

**Q.** What about the MIC [3] of the same compound?
**A.** > 32 µg/mL

**Q.** How did the MIC [1] turn out when `CCn1cc(C(=O)O)c(=O)c2cc(F)c(NC(=O)[C@H]3CC[C@H](COc4c(C)cccc4C)CC3)c(F)c21` was run?
**A.** > 32 µg/mL

**Q.** What about the MIC [2] of the same compound?
**A.** > 32 µg/mL

**Q.** What about the MIC [3] of the same compound?
**A.** > 32 µg/mL

**Q.** What does the source list for `C[C@H]1COc2c(NC(=O)[C@H]3CC[C@@H](COc4ccc([N+](=O)[O-])cc4)CC3)c(F)cc3c(=O)c(C(=O)O)cn1c23`?
**A.** MIC [1]: > 32 µg/mL; MIC [2]: > 32 µg/mL; MIC [3]: > 32 µg/mL

**Q.** `COc1c(NC(=O)[C@H]2CC[C@H](COc3ccccc3)CC2)c(F)cc2c(=O)c(C(=O)O)cn(C3CC3)c12` was tested. Which MIC [1] did it give?
**A.** > 32 µg/mL

**Q.** What about the MIC [2] of the same compound?
**A.** > 32 µg/mL

**Q.** And the MIC [3]?
**A.** > 32 µg/mL

**Q.** With `CCn1cc(C(=O)O)c(=O)c2cc(F)c(NC(=O)[C@H]3CC[C@H](COc4ccc([N+](=O)[O-])cc4)CC3)c(F)c21` as the compound, how does the MIC [1] read?
**A.** > 32 µg/mL

**Q.** What about the MIC [2] of the same compound?
**A.** > 32 µg/mL

**Q.** And the MIC [3]?
**A.** > 32 µg/mL

**Q.** With `C[C@H]1COc2c(NC(=O)[C@H]3CC[C@H](COc4ccc([N+](=O)[O-])cc4)CC3)c(F)cc3c(=O)c(C(=O)O)cn1c23` as the compound, how does the MIC [1] read?
**A.** > 32 µg/mL

**Q.** And the MIC [2]?
**A.** > 32 µg/mL

**Q.** And the MIC [3]?
**A.** > 32 µg/mL

**Q.** How did the MIC [1] turn out when `CCn1cc(C(=O)O)c(=O)c2cc(F)c(NC(=O)[C@H]3CC[C@@H](COc4c(C)cccc4C)CC3)c(F)c21` was run?
**A.** > 32 µg/mL

**Q.** And the MIC [2]?
**A.** > 32 µg/mL

**Q.** What about the MIC [3] of the same compound?
**A.** > 32 µg/mL
